Experimental data published in patent US8609689B2, “Pyridopyrazinones derivatives insulin secretion stimulators, methods for obtaining them and use thereof for the treatment of diabetes” (Merck Patent GmbH, priority 2008, dated 2013).

Columns and labels:
INS-1 cells = experiment: Insulin secretion assay in INS-1 cells (glucose at 4.2 mM); type: cell-based, rat; details: 1 h incubation; for activity at 10 µM: Rattus norvegicus, INS1, glucose 4.2 mM, compound 10 μm, read-out: Insulin secretion, % of ctrl at 10 μm of cpd; for Insulin secretion, % of ctrl at 50 μm of cpd: glucose 4.2 mM, compound 50 μm
Description: INS-1 cells were cultured in complete medium, RPMI1640 containing 1 mM sodium pyruvate, 50 μM 2-mercaptoethanol, 2 mM glutamine, 10 mM HEPES, 100 IU/mL penicillin, and 100 μg/mL streptomycin (CM), supplemented with 10 mM glucose, and 10% (vol/vol) heat-inactivated fetal […] (FCS), as described by Asfari et al. (Endocrinology 130: 167-178, 1992).
INS-1 cells were plated and cultured in 48-well plates. After 2 days of culture, the medium was removed and cells were cultured for 24 h with a medium change to 5 mM glucose, 1% FCS. The cells were then washed with Krebs-Ringer Bicarbonate HEPES buffer (KRBH; 135 mM NaCl; 3.6 mM KCl; 5 mM NaHCO3; 0.5 mM NaH2PO4; 0.5 mM MgCl2; 1.5 mM CaCl2 and 10 mM HEPES; pH 7.4) 0.1% BSA containing 2.8 mM glucose and preincubated for 30 min at 37° C. in the same buffer. The cells were then washed twice and incubated for 1 h in KRBH 0.1% BSA containing 4.2 mM glucose and different concentrations of the tested molecule. Insulin concentration in the collected supernatants was measured with ELISA using rat insulin antibody (Insulin Rat Elit PLUS, cat, ref 10-1145-01).
Insulin secretion results are expressed in % of control (glucose 4.2 mM).

[1] = system: diabetic N0STZ rat islets; experiment: Insulin secretion in diabetic N0STZ rat islets; type: cell-based; details: 90 min, Means±SEM
Description: 14±3 weeks non-fasted N0STZ (PORTHA et al., 1974) male rats (Charles Rivers-Domaine des Oncins, I'Arbresle, France) were anesthetized with sodium pentobarbital (Nembutal®: 45 mg/kg in 5 ml/kg administered intra peritoneally) and body temperature was maintained with a heat lamp.
Rat pancreatic islets of Langerhans were isolated from the pancreas of 8 rats by collagenase P (Boehringer, Meylan, France) digestion. Islets were purified by sedimentation in Hanks balanced salt solution [NaCl (137 mM); KCl (5.36 mM); MgSO4, 7 H2O (0.81 mM); Na2HPO4, 12 H2O (0.34 mM); KH2PO4 (0.44 mM); CaCl2, 2 H2O (1.26 mM); NaHCO3 (4.17 mM)] followed by Ficoll gradient separation. Islets were then hand-picked under stereoscopic microscope and batches of 3 islets were incubated for 90 minutes at 37° C. with continuous shaking under a humidified condition ([…], 5% CO2) in 1 ml of Krebs/Hepes pH 7 solution [NaCl (115 mM), NaHCO3 (24 mM), KCl (5 mM), MgCl2 (1 mM), CaCl2, 2 H2O (1 mM), 0.2% of Bovine serum albumin (Fraction V, fatty acid free, Boehringer, Mannheim), 10 mM Hepes] containing the required glucose or compound concentration. Compounds were dissolved in DMSO at 2.10-2M stock solutions. They were then diluted at the required concentration in Krebs/Hepes buffer containing the required glucose concentration.
At the end of incubation, media was collected and insulin levels were measured using ELISA (EUROBIO, Courtaboeuf, France).
Islets were hand-picked and incubated in the presence of increasing concentrations of compounds in the presence of glucose at 2.8 or 8 mM. At the end of incubation, media was collected and insulin levels were measured using ELISA method. Results are expressed as % of glucose control (2.8 or 8 mM) and represent Means±SEM.

[2] = glucose 2.8 mM, compound 10−4 M

Structure (SMILES) | activity at 10 µM (INS-1 cells) [%] | Insulin secretion, % of ctrl at 50 μm of cpd (INS-1 cells) | also measured
O=c1c(-c2ccc(Cl)cc2)nc2cccnc2n1CC1CC1 [Example 3, 2-(4-chlorophenyl)-4-cyclopropylmethylpyrido[2,3-b]pyrazin-3(4H)-one] | 241 | 398 % of ctrl | Insulin secretion, % of glucose control [1, 2]: 85 ± 8 % of glucose control; Insulin secretion, % of glucose control ([1]; glucose 8 mM, compound 10−4 M): 168 ± 7 % of glucose control; Insulin secretion, % of glucose control ([1]; glucose 8 mM, compound 10−5 M): 145 ± 9 % of glucose control; Insulin secretion, % of glucose control ([1]; glucose 8 mM, compound 10−6 M): 110 ± 7 % of glucose control; Insulin secretion, % of glucose control ([1]; glucose 8 mM, compound 10−7 M): 100 ± 7 % of glucose control
Cc1cc(F)ccc1-c1nc2cccnc2n(C2CC2)c1=O [Example 6-2, 4-cyclopropyl-2-(4-fluoro-2-methylphenyl)pyrido[2,3-b]pyrazin-3(4H)-one] |  |  | melting point: 165 to 167 °C
COCCn1c(=O)c(-c2ccc(F)cc2)nc2cccnc21 [Example 3-16, 2-(4-fluorophenyl)-4-(2-methoxyethyl)pyrido[2,3-b]pyrazin-3(4H)-one] | 254 |  | melting point: 124 to 127 °C
CC(C)n1c(=O)c(-c2ccc(Cl)cc2)nc2cccnc21 [Example 3-18, 2-(4-chlorophenyl)-4-isopropyl-pyrido[2,3-b]pyrazin-3(4H)-one] | 338 |  | 
O=c1c(-c2ccc(Cl)cc2)nc2cccnc2n1C1CC1 [Example 3-5, 2-(4-chlorophenyl)-4-cyclopropylpyrido[2,3-b]pyrazin-3(4H)-one] | 418 | 610 % of ctrl | 
O=c1c(-c2ccc(F)cc2)nc2cccnc2n1C1CC1 [Example 3-6, 4-cyclopropyl-2-(4-fluorophenyl)pyrido[2,3-b]pyrazin-3(4H)-one] | 231 | 255 % of ctrl | 
CCn1c(=O)c(-c2ccccc2)nc2cccnc21 [Example 3-4, 4-ethyl-2-phenylpyrido[2,3-b]pyrazin-3(4H)-one] | 226 | 302 % of ctrl | 
O=c1c(-c2ccc(F)cc2)nc2cccnc2n1CC1CC1 [Example 3-7, 4-cyclopropylmethyl-2-(4-fluorophenyl)pyrido[2,3-b]pyrazin-3(4H)-one] | 208 | 221 % of ctrl | Insulin secretion, % of glucose control [1, 2]: 84 ± 10 % of glucose control; Insulin secretion, % of glucose control ([1]; glucose 8 mM, compound 10−4 M): 228 ± 12 % of glucose control; Insulin secretion, % of glucose control ([1]; glucose 8 mM, compound 10−5 M): 210 ± 9 % of glucose control; Insulin secretion, % of glucose control ([1]; glucose 8 mM, compound 10−6 M): 149 ± 9 % of glucose control; Insulin secretion, % of glucose control ([1]; glucose 8 mM, compound 10−7 M): 124 ± 7 % of glucose control
O=c1c(-c2ccc(Cl)cc2)nc2cccnc2n1CC(F)F [Example 3-8, 2-(4-chlorophenyl)-4-(2,2-difluoroethyl)pyrido[2,3-b]pyrazin-3(4H)-one] | 273 |  | 
Cc1ccnc2c1nc(-c1ccc(Cl)cc1)c(=O)n2C1CC1 [Example 3-13, 2-(4-chlorophenyl)-4-cyclopropyl-8-methylpyrido[2,3-b]pyrazin-3(4H)-one] |  |  | melting point: 159 to 163 °C
CCn1c(=O)c(-c2ccc(F)cc2)nc2cccnc21 [Example 3-3, 2-(4-fluorophenyl)-4-ethylpyrido[2,3-b]pyrazin-3(4H)-one] | 235 | 251 % of ctrl | 
CCn1c(=O)c(-c2ccc(Cl)cc2)nc2cccnc21 [Example 3-2, 2-(4-chlorophenyl)-4-ethylpyrido[2,3-b]pyrazin-3(4H)-one] | 240 | 263 % of ctrl | 
